Assay in all cases: HIV-1 RT Assay
In test [1] the target is T1, Gag-Pol polyprotein [588-1127,Y768C]/[588-1147,Y768C] (Human immunodeficiency virus 1, UniProt P04585, Y768C).
T1 construct: 588-1127; 588-1147
An excerpt:
(§1) The IC50 of reverse transcriptase is the concentration that inhibits 50% of recombinant HIV-1 RT RNA-directed DNA polymerase activity in vitro.

The target of test [2] is T2, Gag-Pol polyprotein [588-1027]/[588-1147] (Human immunodeficiency virus 1, UniProt P04585).
T2 construct: 588-1027; 588-1147
Description: as §1

The target in test [3] is T3, Gag-Pol polyprotein [588-1027,K690N]/[588-1147,K690N] (Human immunodeficiency virus 1, UniProt P04585, K690N).
T3 construct: 588-1027; 588-1147
Description: as §1

In BindingDB's records for doi:10.1016/j.bmc.2004.11.045 (Yamanouchi Pharmaceutical, 2005) one finds IC50 data, which are given here for 29 compounds.

Each structure is given as a SMILES string.

Take `Cc1c(C(C)(C)C)s/c(=N\S(=O)(=O)c2ccccc2)n1C`: the 50% inhibitory concentration (IC50) (commonly the concentration needed to halve the response being measured) in test [1] is 5100 nM; in test [2], 4900 nM; in test [3] it was greater than 50 µM.
As to `Cc1c(C(C)(C)C)s/c(=N\S(=O)(=O)c2cc(Cl)ccc2N)n1C` [2-amino-N-[(2Z)-5-tert-butyl-3,4-dimethyl-2,3-dihydro-1,3-thiazol-2-ylidene]-5-chlorobenzene-1-sulfonamide], the 50% inhibitory concentration (IC50) was found to be 110 nM in test [1], 190 nM in test [2] and 17 µM in test [3].
Consider `Cc1c(C(C)C)s/c(=N\S(=O)(=O)c2cc(F)ccc2C#N)n1C` [2-cyano-N-[(2Z)-3,4-dimethyl-5-(propan-2-yl)-2,3-dihydro-1,3-thiazol-2-ylidene]-5-fluorobenzene-1-sulfonamide], for which the IC50 in test [1] is 2100 nM; in test [2], 92 nM; in test [3] it was greater than 10 µM.
The matching figures for `Cc1c(C(C)(C)C)s/c(=N\S(=O)(=O)c2cc(Cl)ccc2C(N)=O)n1C` [2-{[(5-tert-Butyl-3,4-dimethyl-1,3-thiazol-2(3H)-ylidene)amino]sulfonyl}-4-chlorobenzamide]: greater than 10000 nM, greater than 10000 nM and greater than 10 µM.
On the same counts, the results for `Cc1c(C(C)C)s/c(=N\S(=O)(=O)c2cc(Br)ccc2C#N)n1C` [5-Bromo-2-cyano-N-(5-isopropyl-3,4-dimethyl-1,3-thiazol-2(3H)-ylidene)benzenesulfonamide] are 260 nM, 18 nM and 3.9 µM.
`CC(C)c1s/c(=N\S(=O)(=O)c2cc(Cl)ccc2C#N)n(C)c1Cl` [5-Chloro-N-(4-chloro-5-isopropyl-3-methyl-1,3-thiazol-2(3H)-ylidene)-2-cyanobenzenesulfonamide]: the IC50 in test [1] stood at 91 nM; in test [2] it was 9 nM; in test [3], 3.7 µM.
As to `CC(C)c1s/c(=N\S(=O)(=O)c2cc(Br)ccc2O)n(C)c1Cl` [5-bromo-N-[(2Z)-4-chloro-3-methyl-5-(propan-2-yl)-2,3-dihydro-1,3-thiazol-2-ylidene]-2-hydroxybenzene-1-sulfonamide], the IC50 amounted to 13 nM in test [1], 4.3 nM in test [2] and 0.043 µM in test [3].
With `Cc1c(C(C)C)s/c(=N\S(=O)(=O)c2cc(Cl)ccc2C#N)n1C` [5-chloro-2-cyano-N-[(2Z)-3,4-dimethyl-5-(propan-2-yl)-2,3-dihydro-1,3-thiazol-2-ylidene]benzene-1-sulfonamide], the results for the IC50 in test [1], in test [2] and in test [3] were 200 nM, 11 nM and 5.9 µM, respectively.
The matching figures for `CC(C)c1s/c(=N\S(=O)(=O)c2cc(Cl)ccc2O)n(C)c1Cl` [5-chloro-N-[(2Z)-4-chloro-3-methyl-5-(propan-2-yl)-2,3-dihydro-1,3-thiazol-2-ylidene]-2-hydroxybenzene-1-sulfonamide]: 21 nM, 9.4 nM and 0.17 µM.
On the same counts, the results for `CC(=O)Nc1ccc(Cl)cc1S(=O)(=O)/N=c1\sc(C(C)(C)C)c(C)n1C` [N-(2-{[(5-tert-Butyl-3,4-dimethyl-1,3-thiazol-2(3H)-ylidene)amino]sulfonyl}-4-chlorophenyl)acetamide] are greater than 50000 nM, greater than 50000 nM and greater than 50 µM.
On the same counts, the results for `CC(C)c1s/c(=N\S(=O)(=O)c2cc(C#N)ccc2C#N)n(C)c1Cl` [N-(4-Chloro-5-isopropyl-3-methyl-1,3-thiazol-2(3H)-ylidene)-2,5-dicyanobenzenesulfonamide] are 210 nM, 9.5 nM and 3 µM.
With `COc1ccccc1S(=O)(=O)/N=c1\sc(C(C)(C)C)c(C)n1C` [N-(5-tert-Butyl-3,4-dimethyl-1,3-thiazol-2(3H)-ylidene)-2-methoxybenzenesulfonamide], the IC50 in test [2] (pH 8.4, 37 °C) was 50000 nM; in test [3] (pH 8.4, 37 °C), greater than 50 µM.
On to `Cc1c(C(C)(C)C)s/c(=N\S(=O)(=O)c2ccc(Cl)cc2)n1C` [N-(5-tert-Butyl-3,4-dimethyl-1,3-thiazol-2(3H)-ylidene)-4-chlorobenzenesulfonamide], for which the IC50 in test [1] (pH 8.4, 37 °C) was greater than 10000 nM; in test [2] (pH 8.4, 37 °C), greater than 10000 nM; in test [3] (pH 8.4, 37 °C), greater than 10 µM.
As for `Cc1c(C(C)(C)C)s/c(=N\S(=O)(=O)c2ccc(O)cc2)n1C` [N-(5-tert-Butyl-3,4-dimethyl-1,3-thiazol-2(3H)-ylidene)-4-hydroxybenzenesulfonamide], the IC50 in test [1] was greater than 10000 nM; in test [2], greater than 10000 nM; in test [3] it was greater than 10 µM.
In the case of `COc1ccc(S(=O)(=O)/N=c2\sc(C(C)(C)C)c(C)n2C)cc1` [N-(5-tert-Butyl-3,4-dimethyl-1,3-thiazol-2(3H)-ylidene)-4-methoxybenzenesulfonamide], the IC50 is greater than 10000 nM in test [1], greater than 10000 nM in test [2] and greater than 10 µM in test [3].
`Cc1c(C(C)(C)C)s/c(=N\S(=O)(=O)c2ccc([N+](=O)[O-])cc2)n1C` [N-(5-tert-Butyl-3,4-dimethyl-1,3-thiazol-2(3H)-ylidene)-4-nitrobenzenesulfonamide]: the IC50 was greater than 10000 nM in test [1] (pH 8.4, 37 °C); greater than 10000 nM in test [2] (pH 8.4, 37 °C); greater than 10 µM in test [3] (pH 8.4, 37 °C).
On to `Cc1c(C(C)(C)C)s/c(=N\S(=O)(=O)c2cc(Cl)ccc2C#N)n1C` [N-(5-tert-Butyl-3,4-dimethyl-1,3-thiazol-2(3H)-ylidene)-5-chloro-2-cyanobenzenesulfonamide], for which the IC50 in test [1] was 69 nM; in test [2], 180 nM; in test [3], greater than 50 µM.
For `Cc1c(C(C)(C)C)s/c(=N\S(=O)(=O)c2cc(Cl)ccc2O)n1C` [N-(5-tert-Butyl-3,4-dimethyl-1,3-thiazol-2(3H)-ylidene)-5-chloro-2-hydroxybenzenesulfonamide], the results for the IC50 in test [1], in test [2] and in test [3] were 11 nM, 32 nM and 1.1 µM, respectively.
With `Cc1c(C(C)(C)C)s/c(=N\S(=O)(=O)c2ccccc2Cl)n1C` [N-[(2Z)-5-tert-butyl-3,4-dimethyl-2,3-dihydro-1,3-thiazol-2-ylidene]-2-chlorobenzene-1-sulfonamide], the IC50 in test [1] (pH 8.4, 37 °C) is greater than 10000 nM; in test [2] (pH 8.4, 37 °C), greater than 10000 nM; in test [3] (pH 8.4, 37 °C) it was greater than 10 µM.
As for `Cc1c(C(C)(C)C)s/c(=N\S(=O)(=O)c2ccccc2O)n1C` [N-[(2Z)-5-tert-butyl-3,4-dimethyl-2,3-dihydro-1,3-thiazol-2-ylidene]-2-hydroxybenzene-1-sulfonamide], the IC50 in test [1] came to 410 nM; in test [2], 1600 nM; in test [3], 30 µM.
Consider `Cc1c(C(C)(C)C)s/c(=N\S(=O)(=O)c2ccccc2[N+](=O)[O-])n1C` [N-[(2Z)-5-tert-butyl-3,4-dimethyl-2,3-dihydro-1,3-thiazol-2-ylidene]-2-nitrobenzene-1-sulfonamide], for which the IC50 is 36000 nM in test [1] (pH 8.4, 37 °C); greater than 50000 nM in test [2] (pH 8.4, 37 °C); greater than 50 µM in test [3] (pH 8.4, 37 °C).
For `Cc1c(C(C)(C)C)s/c(=N\S(=O)(=O)c2cccc(Cl)c2O)n1C` [N-[(2Z)-5-tert-butyl-3,4-dimethyl-2,3-dihydro-1,3-thiazol-2-ylidene]-3-chloro-2-hydroxybenzene-1-sulfonamide], the IC50 is 6300 nM in test [2] and greater than 50 µM in test [3].
`Cc1c(C(C)(C)C)s/c(=N\S(=O)(=O)c2cccc(Cl)c2)n1C` [N-[(2Z)-5-tert-butyl-3,4-dimethyl-2,3-dihydro-1,3-thiazol-2-ylidene]-3-chlorobenzene-1-sulfonamide]: the IC50 is 44 nM in test [1] (pH 8.4, 37 °C); 300 nM in test [2] (pH 8.4, 37 °C); 11 µM in test [3] (pH 8.4, 37 °C).
`Cc1c(C(C)(C)C)s/c(=N\S(=O)(=O)c2cccc(O)c2)n1C` [N-[(2Z)-5-tert-butyl-3,4-dimethyl-2,3-dihydro-1,3-thiazol-2-ylidene]-3-hydroxybenzene-1-sulfonamide]: the IC50 is 14000 nM in test [1], 8800 nM in test [2] and greater than 50 µM in test [3].
As for `COc1cccc(S(=O)(=O)/N=c2\sc(C(C)(C)C)c(C)n2C)c1` [N-[(2Z)-5-tert-butyl-3,4-dimethyl-2,3-dihydro-1,3-thiazol-2-ylidene]-3-methoxybenzene-1-sulfonamide], the figures for the IC50 in test [2] and in test [3] were 8800 nM and greater than 50 µM, respectively.
In the case of `Cc1c(C(C)(C)C)s/c(=N\S(=O)(=O)c2cc(Cl)ccc2NS(C)(=O)=O)n1C` [N-[(2Z)-5-tert-butyl-3,4-dimethyl-2,3-dihydro-1,3-thiazol-2-ylidene]-5-chloro-2-methanesulfonamidobenzene-1-sulfonamide], the IC50 in test [1] is greater than 50000 nM; in test [2] it was greater than 50000 nM; in test [3] it was greater than 50 µM.
For `Cc1c(C(C)(C)C)s/c(=N\S(=O)(=O)c2cc(Cl)ccc2[N+](=O)[O-])n1C` [N-[(2Z)-5-tert-butyl-3,4-dimethyl-2,3-dihydro-1,3-thiazol-2-ylidene]-5-chloro-2-nitrobenzene-1-sulfonamide], the IC50 is 2400 nM in test [2] and greater than 50 µM in test [3].
For `COC(=O)c1ccc(Cl)cc1S(=O)(=O)/N=c1\sc(C(C)(C)C)c(C)n1C` [methyl 2-{[(2Z)-5-tert-butyl-3,4-dimethyl-2,3-dihydro-1,3-thiazol-2-ylidene]sulfamoyl}-4-chlorobenzoate], the results for the IC50 in test [1], in test [2] and in test [3] were 10000 nM, greater than 10000 nM and greater than 10 µM, respectively.
For the compound `Cc1c(C(C)C)s/c(=N\S(=O)(=O)c2cc(C#N)ccc2C#N)n1C` [thiazolidenebenzenesulfonamide deriv.], the IC50 in test [1] stood at 470 nM; in test [2] it was 12 nM; in test [3], 4.1 µM.
